# Activity calls are given as the source filed them.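 Rule for the calls: active = AC50 of 30 µM or below; inactive = AC50 above 30 µM.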
# Target: Thioredoxin (Homo sapiens) (UniProt P10599)
# Test: TRX disulfide reduction blockade – biochemical, insulin turbidity, dry powder samples, counter-screen for PDI inhibitor project, dose response (AID 652214)
# Conditions: purified thioredoxin, insulin reduction turbidity OD650
# Chain of Thioredoxin (Homo sapiens) (P10599 whole entry, looked up): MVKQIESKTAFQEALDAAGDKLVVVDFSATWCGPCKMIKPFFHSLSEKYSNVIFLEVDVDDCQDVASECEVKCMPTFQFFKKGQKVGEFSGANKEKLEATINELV
row,Compound,AC50
1,CCOC(=O)c1c(CN2CCN(CCO)CC2)n(-c2ccccc2)c2cc(Br)c(O)cc12,> 30 µM (inactive)
2,O=C(NC1CCCC1)C1(CCOc2ccccc2)CCN(Cc2ccc(O)c(Cl)c2)CC1,> 30 µM (inactive)
3,CCOC(=O)C1(CCOc2ccccc2)CCN(C(=O)c2ccc(O)c(Cl)c2)CC1,> 30 µM (inactive)
4,O=C(Nc1ccccc1)C1(CCOc2ccccc2)CCN(Cc2ccc(O)c(Cl)c2)CC1,> 30 µM (inactive)
5,C/C1=C\[C@@H](O)C(C)(C)CCCC2(C)OC2C[C@@H]1OC(=O)c1ccc(O)cc1 (some centres not stated),3 µM
6,CCOC(=O)C1(CCOc2ccccc2)CCN(Cc2ccc(OC)c(Cl)c2)CC1,> 30 µM (inactive)
7,C/C1=C\C[C@H](OC(=O)c2ccc(O)cc2)/C(C)=C/[C@@H](O)C(C)(C)CCC1,> 30 µM (inactive)
8,CCOC(=O)C1(CCOc2ccccc2)CCN(Cc2ccc(O)c(Cl)c2)CC1,> 30 µM (inactive)
9,CCOC(=O)C1(CCOc2ccccc2)CCN(Cc2ccc(O)cc2)CC1,> 30 µM (inactive)
10,CC(C)(C)OC(=O)C1(CCOc2ccccc2)CCN(Cc2ccc(O)c(Cl)c2)CC1,> 30 µM (inactive)
11,CCN(C)C(=O)C1(CCOc2ccccc2)CCN(Cc2ccc(O)c(Cl)c2)CC1,> 30 µM (inactive)
12,CC(C)OC(=O)C1(CCOc2ccccc2)CCN(Cc2ccc(O)c(Cl)c2)CC1,> 30 µM (inactive)
